What was measured:
[1] = system: Stable N2a cells expressing PS1 chimeric proteins; assay: Zeocin toxicity / cell viability assay (WST-1) in stable N2a cells expressing PS1 chimera; assay type: cell-based, mouse
Method: (§1) Cultured stable N2a cells expressing chimeric PS1 polypeptides were tested for cell viability in the presence of increasing concentrations of zeocin and in the presence and absence of known presenilin inhibitors in multi-well formats (FIG. 11). […] In these assays, cell viability can be assayed by commercially available cell viability ELISA kits.
(§2) Stable N2a cells expressing PS1 chimeric proteins or the parental N2a cell line were plated at a density of 6.25×10^3 cells/well into 96-well tissue culture dishes in a volume of 90 µl/well. Serial dilutions of Zeocin were added (2 mg/ml to 0.0625 mg/ml final concentration) in a volume of 10 µl/well. In some experiments the γ-secretase inhibitor, […] (purchased from Bachem) was added at a final concentration of 1 μM to one set of wells. The cells were incubated from 2 to 3 days at 37° C. Then 10 μl of Cell Proliferation Reagent WST-1 (Roche Biochemical) was added to each well. The plate was shaken for 30 sec. then placed back in the 37° C. incubator. The plate was read at 450 nm after 30 min., 1 h, 2 h and 3h in a Benchmark Plus Absorbance Plate Reader (BioRad).

[2] = molecular target: T1, PS1-Sh ble polypeptide (UniProt P17493+P49768); assay: Level of PS1-Sh ble polypeptide after inhibitor treatment; assay type: cell-based; details: FIG. 13 legend
T1 construct: Sh ble protein (Ble, bleomycin/zeocin resistance protein of Streptoalloteichus hindustanus, 124 aa); expressed in transfected cells

[3] = molecular target: PS1 (Homo sapiens, UniProt P49768); details: previously reported (Shearman et al., 2000); cited from earlier work
[4] = molecular target: PS2 (Homo sapiens, UniProt P49810); details: previously reported (Shearman et al., 2000); cited from earlier work
[5] = system: parental N2a cell line; details: parental cells; lowest zeocin concentration tested (0.2 mg/ml); FIG. 12
Method: as §1, §2

[6] = system: parental PS1ΔBle cells; details: parental PS1ΔBle cells expressing very low levels of PS1ΔBle
Method: For the screen, a cell line that expresses very low levels of the PS1ΔBle protein is chosen so that the chimera is largely present as cleaved PS1 NTF and PS1ΔBleCTF. Thus, transgene-derived expression of a putative protein that facilitates increased accumulation of PS1ΔBle confers increased bleomycin (Zeocin) resistance to the target cell. […] After allowing infection/transgene expression for 2-3 days, the infected population of cells are subject to antibiotic selection in 1-2 mg/ml zeocin (5-10 times greater than the concentration normally used for selecting stable clones). At this higher concentration, only cells that accumulate several fold higher levels of PS1ΔBle relative to parental PS1ΔBle cells (that are resistant to 0.2 mg/ml), form colonies. […] If overexpression of a particular cDNA caused increased accumulation of PS1ΔBle, and therefore, an increased resistance to zeocin, in a clone, the cDNA rescued from the clone will confer increased resistance to the parental PS1ΔBle cells during the rescreening.

SMILES | zeocin concentrations at which inhibitor-treated cells are viable ([1]; cells expressing PS1 chimera treated with inhibitor (1 μM), FIG. 13) [mg/mL] | resistance to zeocin conferred by the PS1 chimera ([1]; inhibitor at final concentration of 1 μM plus zeocin, FIG. 13) | levels of the PS1-Sh ble polypeptide [2] | binding to PS1 [3] | binding to PS2 [4] | zeocin concentrations at which cells are viable ([1]; cells expressing PS1 chimera, 2 to 3 days at 37° C., WST-1 read at 450 nm, FIG. 12) [mg/mL] | cell viability in presence of zeocin [5] | zeocin concentration to which cells are resistant [6] [mg/mL]
CC(C)C[C@H](NC(=O)[C@H](Cc1ccccc1)C[C@@H](O)[C@H](Cc1ccccc1)NC(=O)OC(C)(C)C)C(=O)N[C@@H](Cc1ccccc1)C(N)=O [L-685,458] | 0 to 2 | reduced the resistance to zeocin | reduces the levels | bind | bind | – | – | –
Cc1c(N)nc([C@H](CC(N)=O)NC[C@H](N)C(N)=O)nc1C(=O)N[C@H](C(=O)N[C@H](C)[C@@H](O)[C@H](C)C(=O)N[C@H](C(=O)NCCC1=N[C@@H](c2nc(C(=O)NCCCCN=C(N)N)cs2)CS1)[C@@H](C)O)[C@@H](O[C@@H]1O[C@@H](CO)[C@@H](O)[C@H](O)[C@@H]1O[C@H]1O[C@H](CO)[C@@H](O)[C@H](OC(N)=O)[C@@H]1O)c1cnc[nH]1 [zeocin] | – | – | – | – | – | 0 to 4 | significantly less viable | 0.2

Source: US20030022151A1, “Functional screening” (priority 2001, published 2003)
